Assays:
[1] = test system: patients with asymptomatic moderate or severe carotid artery stenosis/occlusion; assay: Alzheimer's Disease Assessment Scale-Cognitive subscale 13 (ADAS-Cog), change during observation period; format: in vivo, human; conditions: for β, resveratrol intake vs ADAS-Cog delayed recall change / β, resveratrol intake vs ADAS-Cog memory domain change / β, resveratrol intake vs ADAS-Cog total change: 79 patients, linear regression
Procedure: (§1) Subjects were patients with asymptomatic moderate or severe carotid artery stenosis/occlusion who visited the National Cerebral and Cardiovascular Center in Japan from July 2020 to August 2021 and who were taking or not taking trans-resveratrol in an amount of 30 mg/day. The inclusion criteria were as follows: (1) patients with asymptomatic moderate or severe carotid artery stenosis/occlusion who presented with a peak systolic velocity of 130 cm/s or more at a stenotic lesion on carotid ultrasonography (corresponding to a stenotic diameter of >50%) and who underwent test (2) and/or (3); (2) patients who underwent cognitive function tests (Alzheimer's Disease Assessment Scale-Cognitive subscale 13 (ADAS-Cog) and Montreal Cognitive Assessment (MoCA)) longitudinally twice; (3) patients who also underwent ^15O-gas positron emission tomography (PET) longitudinally twice in a similar manner. The primary outcome is a comparison of the amounts of change in ADAS-Cog during the observation period (differential analysis). The secondary outcomes are (1) a comparison of the amounts of change in MoCA during the observation period (differential analysis), and (2) a comparison of the amounts of change in cerebral blood flow on ^15O -gas PET (differential analysis). This study was initiated after receiving approval from the Research Ethics Review Committee of the National Cerebral and Cardiovascular Center (Research Project Number: R20113). In Example 1 above, the 82 subject patients included patients who were tested for both change in cognitive function and change in cerebral blood flow, as well as patients who were tested for only either change in cognitive function or change in cerebral blood flow. Therefore, based on the above results, the same analysis as in Example 1 was performed again on 79 patients who were tested for both change in cognitive function and change in cerebral blood flow from among the 82 patients. […] The baseline mean total MoCA scores were 23.6±3.6 in the non-RES group and 23.7±3.6 in the RES group. Further, the mean total ADAS-Cog scores were 14.6±5.4 in the non-RES group and 15.8±7.2 in the RES group. The mean observation periods were 244.8±86.9 and 221.2±61.9 days, respectively (p=0.18). The baseline scores were under the category of mild cognitive impairment (MCI) (Table 4). For the 79 patients, the amount of change in MoCA and ADAS-Cog scores was examined to investigate changes in cognitive function associated with administration of resveratrol. […] According to ADAS-Cog, a significant association was found with cognitive function improvement in the RES group in terms of delayed recall (0.5±1.6 VS. −0.9±1.8; p=0.001), memory domain (0.4±3.3 VS. −1.6±3.1; p=0.007), and total score (0.5±3.7 vs. −1.5±3.4; p=0.019). Therefore, after adjusting for age, gender, hypertension, diabetes, dyslipidemia, and coronary artery disease, a multivariate linear regression model analysis was performed. Resveratrol intake was an independent predictor of improvement in spatial cognitive and executive functions (β=0.26, 95% confidence interval [CI]: 0.062-1.15, p=0.03) and memory (memory domain: β=−0.26, 95% CI: −3.23 to −0.15, p=0.032; delayed recall: β=−0.37, 95% CI: −2.16 to −0.54, p=0.001) (Table 5). Accordingly, resveratrol may have contributed to improvement in the visuospatial cognitive function, executive function, and memory.

[2] = test system: carotid artery occlusion model mice; conditions: NPL 3; cited from earlier work
[3] = test system: human Alzheimer's patients; conditions: 500 mg of resveratrol; NPL 5; cited from earlier work
[4] = test system: patients with asymptomatic moderate or severe carotid artery stenosis/occlusion; assay: Montreal Cognitive Assessment (MoCA), change during observation period; format: in vivo, human; conditions: for β, resveratrol intake vs MoCA visuospatial cognitive function/executive function change: 79 patients, linear regression
Procedure: as §1

[5] = test system: patients with asymptomatic moderate or severe carotid artery stenosis/occlusion; assay: Adverse events during long-term resveratrol intake; format: in vivo, human; conditions: Example 2, 30 mg/day
Excerpt: The baseline mean total MoCA scores were 23.6±3.6 in the non-RES group and 23.7±3.6 in the RES group. Further, the mean total ADAS-Cog scores were 14.6±5.4 in the non-RES group and 15.8±7.2 in the RES group. The mean observation periods were 244.8±86.9 and 221.2±61.9 days, respectively (p=0.18). The baseline scores were under the category of mild cognitive impairment (MCI) (Table 4).
To identify the reason associated with significant improvements in the visuospatial cognitive function, executive function, and memory in the RES group, cerebral blood flow was measured. Initially, the cerebral blood flow change in each entire hemisphere was analyzed. […] To examine the changes in detail, the cerebral blood flow was analyzed in terms of the frontal lobe, basal ganglia, and thalamus, which govern the visuospatial cognitive and executive functions, and memory. Longitudinally, long-term resveratrol intake was associated with a significant increase in cerebral blood flow in the right frontal lobe (non-RES group: 0.001±0.037, RES group: 0.019±0.033; p=0.027)). […] Therefore, long-term resveratrol intake may contribute not only to improvement of cognitive function but also to increase in cerebral blood flow.

[6] = test system: patients with asymptomatic moderate or severe carotid artery stenosis/occlusion; assay: 15O-gas PET: cerebral blood flow, cerebral oxygen metabolic rate, cerebral oxygen uptake rate; format: in vivo, human; set-up: Cerebral blood flow change: entire right hemisphere / Cerebral blood flow change: entire left hemisphere / Cerebral blood flow change: right frontal lobe / Cerebral blood flow change: right callosomarginal artery area / Cerebral blood flow change: left callosomarginal artery area / Cerebral blood flow change: left lenticular nucleus / Cerebral blood flow change: left thalamus: unit not given here; conditions: for β, resveratrol intake vs cerebral blood flow change: Frontal circulation area / β, resveratrol intake vs cerebral blood flow change: Left callosomarginal artery area / β, resveratrol intake vs cerebral blood flow change: Left lenticular nucleus / β, resveratrol intake vs cerebral blood flow change: Right callosomarginal artery area / β, resveratrol intake vs cerebral blood flow change: Right precentral artery / β, resveratrol intake vs cerebral blood flow change: Thalamus, Left / β, resveratrol intake vs cerebral blood flow change: Thalamus, Right: 79 patients, linear regression
Procedure: Subjects were patients with asymptomatic moderate or severe carotid artery stenosis/occlusion who visited the National Cerebral and Cardiovascular Center in Japan from July 2020 to August 2021 and who were taking or not taking trans-resveratrol in an amount of 30 mg/day. The inclusion criteria were as follows: (1) patients with asymptomatic moderate or severe carotid artery stenosis/occlusion who presented with a peak systolic velocity of 130 cm/s or more at a stenotic lesion on carotid ultrasonography (corresponding to a stenotic diameter of >50%) and who underwent test (2) and/or (3); (2) patients who underwent cognitive function tests (Alzheimer's Disease Assessment Scale-Cognitive subscale 13 (ADAS-Cog) and Montreal Cognitive Assessment (MoCA)) longitudinally twice; (3) patients who also underwent ^15O-gas positron emission tomography (PET) longitudinally twice in a similar manner. The primary outcome is a comparison of the amounts of change in ADAS-Cog during the observation period (differential analysis). The secondary outcomes are (1) a comparison of the amounts of change in MoCA during the observation period (differential analysis), and (2) a comparison of the amounts of change in cerebral blood flow on ^15O -gas PET (differential analysis). This study was initiated after receiving approval from the Research Ethics Review Committee of the National Cerebral and Cardiovascular Center (Research Project Number: R20113). All PET images were anatomically standardized using linear and nonlinear transformations with SPM2 to ensure that the brain images of all patients had the same anatomical format, and the cerebral blood flow was quantified using 3DSRT (PDRadiopharma Inc., Tokyo, Japan). Each hemisphere was divided into twelve ROI segments, grouped according to the arterial supply: callosomarginal artery area, pericallosal artery area, precentral artery area, central artery area, angular artery area, parietal lobe, temporal lobe, occipital lobe, hippocampus, lenticular nucleus, thalamus, and cerebellum. The frontal circulation areas were defined to be the callosomarginal artery area, pericallosal artery area, precentral artery area, and central artery area. In quantifying the relative cerebral blood flow, counts under each ROI were normalized to an average cerebral blood flow count within the bilateral cerebellum. […] Using 3D-SRT (FUJIFILM RI Pharma, Tokyo, Japan), the difference in the amount of change was analyzed (for the RES group, the difference between the cerebral blood flow before RES administration (relative to cerebellum) and the cerebral blood flow after RES administration (relative to cerebellum); for the non-RES group, the cerebral blood flow at intervals of 6 months to 1 year (relative to cerebellum)). […] In Example 1 above, the 82 subject patients included patients who were tested for both change in cognitive function and change in cerebral blood flow, as well as patients who were tested for only either change in cognitive function or change in cerebral blood flow. Therefore, based on the above results, the same analysis as in Example 1 was performed again on 79 patients who were tested for both change in cognitive function and change in cerebral blood flow from among the 82 patients. To identify the reason associated with significant improvements in the visuospatial cognitive function, executive function, and memory in the RES group, cerebral blood flow was measured. Initially, the cerebral blood flow change in each entire hemisphere was analyzed. […] To examine the changes in detail, the cerebral blood flow was analyzed in terms of the frontal lobe, basal ganglia, and thalamus, which govern the visuospatial cognitive and executive functions, and memory. Longitudinally, long-term resveratrol intake was associated with a significant increase in cerebral blood flow in the right frontal lobe (non-RES group: 0.001±0.037, RES group: 0.019±0.033; p=0.027)). […]

[7] = Example 1, RES group 37 of 82 patients, 30 mg/day
[8] = Example 2, multivariate analysis
[9] = Example 2, RES group n = 36 of 79 patients, 30 mg/day
[10] = Example 1, relative to cerebellum, before vs after RES administration, 30 mg/day
[11] = Example 2, multivariable analysis
[12] = Example 2, univariable analysis

Oc1ccc(/C=C/c2cc(O)cc(O)c2)cc1 [resveratrol, 3,4′, 5-trihydroxy-trans-stilbene]
Amount of change in ADAS-Cog: Total [1, 7]: −1.48 ± 3.4
Amount of change in ADAS-Cog: delayed recall [1, 7]: −0.89 ± 1.7
Amount of change in ADAS-Cog: memory domain [1, 7]: −1.65 ± 3.0
β, resveratrol intake vs ADAS-Cog delayed recall change [1, 8]: −0.37
β, resveratrol intake vs ADAS-Cog memory domain change [1, 8]: −0.26
β, resveratrol intake vs ADAS-Cog total change [1, 8]: −0.18
β, resveratrol intake vs ADAS-Cog delayed recall change ([1]; Example 2, univariate analysis): −0.37
β, resveratrol intake vs ADAS-Cog memory domain change ([1]; Example 2, univariate analysis): −0.30
β, resveratrol intake vs ADAS-Cog total change ([1]; Example 2, univariate analysis): −0.26
Amount of change in ADAS-Cog: delayed recall [1, 9]: −0.9±1.8
Amount of change in ADAS-Cog: memory domain [1, 9]: −1.6±3.1
Amount of change in ADAS-Cog: total score [1, 9]: −1.5±3.4
Autophagy [2]: activation of autophagy
Cognitive function [2]: improvement in cognitive function
Oxidative stress-induced nerve damage [2]: reduced oxidative stress-induced nerve damage
Effect in human Alzheimer's patients [3]: no effect was observed
Amount of change in MoCA: Executive function/spatial cognitive function [4, 7]: 0.35 ± 1.0
β, resveratrol intake vs MoCA visuospatial cognitive function/executive function change ([4]; Example 2, multivariate analysis adjusted for age, gender, hypertension, diabetes, dyslipidemia, coronary artery disease): 0.26
β, resveratrol intake vs MoCA visuospatial cognitive function/executive function change ([4]; Example 2, univariate analysis): 0.257
Amount of change in MoCA: visuospatial cognitive and executive functions [4, 9]: 0.4±0.9
Amount of change in total MoCA score [4, 9]: 0.4±2.6
Adverse events [5]: no adverse events observed
Cerebral oxygen uptake rate ([6]; Example 1, 30 mg/day): no association
Cerebral oxygen metabolic rate ([6]; Example 1, all areas, 30 mg/day): tendency for an association between RES intake and an increase in the cerebral oxygen metabolic rate
Cerebral blood flow in other areas ([6]; Example 1, areas other than those of Table 3, relative to cerebellum): tendency for an association between RES intake and an increase in the cerebral blood flow
Amount of change in cerebral blood flow: Left callosomarginal artery area [6, 10]: 0.171 ± 0.42
Amount of change in cerebral blood flow: Left putamen [6, 10]: 0.19 ± 0.57
Amount of change in cerebral blood flow: Left thalamus [6, 10]: 0.449 ± 0.90
Amount of change in cerebral blood flow: Right callosomarginal artery area [6, 10]: 0.179 ± 0.34
Amount of change in cerebral blood flow: Right frontal lobe [6, 10]: 0.215 ± 0.35
Amount of change in cerebral blood flow: Right thalamus [6, 10]: 0.393 ± 0.85
β, resveratrol intake vs cerebral blood flow change: Frontal circulation area [6, 11]: 0.25
β, resveratrol intake vs cerebral blood flow change: Left callosomarginal artery area [6, 11]: 0.27
β, resveratrol intake vs cerebral blood flow change: Left lenticular nucleus [6, 11]: 0.31
β, resveratrol intake vs cerebral blood flow change: Right callosomarginal artery area [6, 11]: 0.29
β, resveratrol intake vs cerebral blood flow change: Right precentral artery [6, 11]: 0.25
β, resveratrol intake vs cerebral blood flow change: Thalamus, Left [6, 11]: 0.29
β, resveratrol intake vs cerebral blood flow change: Thalamus, Right [6, 11]: 0.23
β, resveratrol intake vs cerebral blood flow change: Frontal circulation area [6, 12]: 0.25
β, resveratrol intake vs cerebral blood flow change: Left callosomarginal artery area [6, 12]: 0.24
β, resveratrol intake vs cerebral blood flow change: Left lenticular nucleus [6, 12]: 0.29
β, resveratrol intake vs cerebral blood flow change: Right callosomarginal artery area [6, 12]: 0.28
β, resveratrol intake vs cerebral blood flow change: Right precentral artery [6, 12]: 0.25
β, resveratrol intake vs cerebral blood flow change: Thalamus, Left [6, 12]: 0.29
β, resveratrol intake vs cerebral blood flow change: Thalamus, Right [6, 12]: 0.24
Cerebral blood flow change: entire left hemisphere [6, 9]: 0.014±0.031
Cerebral blood flow change: entire right hemisphere [6, 9]: 0.016±0.032
Cerebral blood flow change: left callosomarginal artery area [6, 9]: 0.017±0.042
Cerebral blood flow change: left lenticular nucleus [6, 9]: 0.033±0.06
Cerebral blood flow change: left thalamus [6, 9]: 0.045±0.090
Cerebral blood flow change: right callosomarginal artery area [6, 9]: 0.018±0.034
Cerebral blood flow change: right frontal lobe [6, 9]: 0.019±0.033
Cerebral blood flow change: right precentral artery area [6, 9]: 0.021±0.035
Cerebral blood flow change: right thalamus [6, 9]: 0.039±0.85

From US20240285548A1, “AGENT FOR PREVENTION AND/OR TREATMENT OF COGNITIVE IMPAIRMENT” (NATIONAL CEREBRAL AND CARDIOVASCULAR CENTER, priority 2022, published 2024)
